Experimental data reported in US20240158339A1, “TYRAMINE CONTAINING HYDROXYCINNAMIC ACID AMIDE DERIVATIVES AND METHODS OF USE THEREOF” (Brightseed, Inc., priority 2018, published 2024).
Entries after “also recorded” stand apart in the source; their conditions may differ.

How the values were obtained:
HNF4α = target: T1, HNF4α (Homo sapiens, UniProt P41235); test: Insulin promoter activity assay (HNF4α assay) in T6PNE cells; type: cell-based
T1 construct: T6PNE cells (Kiselyuk, et al. (2012) Chem. Biol. 19(7):806-818; Kiselyuk, et al. (2010) J. Biomol; endogenous in cells; host or cells: T6PNE cells
T1 sequence (P41235 1-474): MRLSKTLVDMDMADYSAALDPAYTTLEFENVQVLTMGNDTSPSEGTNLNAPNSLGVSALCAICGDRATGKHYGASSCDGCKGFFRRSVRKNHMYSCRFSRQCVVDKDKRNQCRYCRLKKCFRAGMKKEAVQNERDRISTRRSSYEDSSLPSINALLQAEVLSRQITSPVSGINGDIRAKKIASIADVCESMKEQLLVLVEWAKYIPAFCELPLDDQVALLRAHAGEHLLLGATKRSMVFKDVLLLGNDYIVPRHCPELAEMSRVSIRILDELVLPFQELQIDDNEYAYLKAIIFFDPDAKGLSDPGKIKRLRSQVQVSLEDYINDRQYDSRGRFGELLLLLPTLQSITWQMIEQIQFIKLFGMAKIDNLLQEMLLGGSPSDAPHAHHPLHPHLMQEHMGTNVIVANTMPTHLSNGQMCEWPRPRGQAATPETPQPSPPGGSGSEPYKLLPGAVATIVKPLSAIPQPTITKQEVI
Protocol: Insulin Promoter Activity. T6PNE cells (Kiselyuk, et al. (2012) Chem. Biol. 19(7):806-818; Kiselyuk, et al. (2010) J. Biomol. Screen 15(6):663-70) are seeded at 2000 cells per well in 384-well tissue culture plates in the presence of 1 μM tamoxifen and 0.03 mM palmitate. After a 24-hour incubation, a compound of the invention is added to the cells. Forty-eight hours after compound addition, cells are fixed in 4% paraformaldehyde and stained with DAPI. Blue (DAPI) and green (human insulin promoter driving GFP) channels are imaged.
Inhibition of HNF4α GFP Expression. Using the insulin promoter assay described herein, activity of HNF4α was assessed in the presence of BI-6015 (0, 2.5, 5 μM), a known antagonist of HNF4α (Kiselyuk, et al. (2012) Chem. Biol. 19(7):806-818), in combination with N-trans-caffeoyltyramine (0, 5, 10, 20 μM).
Given the role of HNF4α in maintaining a health metabolism in humans, test compounds were screened for activity as HNF4α agonists (either direct or indirect effects). Using a known insulin promoter-reporter assay Kiselyuk and colleagues (2010. J. Biomol. Screen 15(6):663-70) screened a library of compounds for activity to promote insulin activation. […] The OTC promoter is known to be responsive to HNF4α in transient transfection assays (Inoue, et al. (2002) J. Biol. Chem. 277:25257-65).
Plant compounds in the top 10th percentile of similarity to the 18 target structures were selected and compounds predicted to be potential agonists of HNF4α activity given their chemical structural features were screened in the HNF4α assay.

diet-induced obese mice = test: Efficacy in diet-induced obese mice; type: in vivo
Protocol: Alkaline Phosphatase (ALP) Quantitation. Increased levels of ALP in blood are considered indicative of liver function abnormalities. Thus, ALP was assayed in accordance with known methods (Kiselyuk, et al. (2012) Chem. Biol. 19(7):806-818). Briefly, prior to sacrifice, blood was drawn and analyzed using a VetScan blood analyzer, measuring alkaline phosphatase (ALP, IU/L), alanine aminotransferase (ALT, IU/L), gamma glutamyl transferase (GGT, IU/L), bile acids (BA, μmol/L), total bilirubin (TBIL, mg/dL), albumin (ALB, g/dL), blood urea nitrogen (BUN, mg/dL), and cholesterol (CHOL, mg/dL).
Triglyceride (TG) Quantitation. TG quantity was assayed using a Triglyceride Colorimetric Assay Kit (Cayman Chemicals; Ann Arbor, MI) according to the manufacturer's instructions.
Lipid Droplet Size Analysis. All slides were scanned at a magnification of 20× using the Aperio Scanscope FL system (Aperio Technologies Inc.; Vista, CA). The appropriate dyes were assigned and illumination levels were calibrated using a preset procedure; the parameters were saved and applied to all slides. The acquired digital images represented whole tissue sections. Sections were evaluated for image quality. All acquired images were subsequently placed in dedicated project folders, and stored on a designated local server. Selected areas of the slides were selected using Aperio Imagescope (version 12 Aperio Technologies Inc.). For analysis, slides were viewed, whole tissue areas were selected and analyzed using the web-based Image Scope viewer. Slides were quantified using the ‘Color Deconvolution v9’ algorithm for oil redo staining (version 11 Aperio Technologies Inc.). The algorithm was optimized using a preset procedure to maximize the strong red color positive oil droplets signal to noise ratio and the subsequent macro was saved and applied to all slides.
HNF4α Immunostaining in Organ Samples. Samples were harvested from mice, fixed in 4% paraformaldehyde and embedded in paraffin or O.C.T. freezing media (Sakura Finetek; Torrance, CA). Slides of 5 μm thickness were washed four times with PBS and treated with 0.3% Triton™ in PBS for 10 minutes. Antigen retrieval was carried out with CitriSolv™ (Fisher Scientific; Waltham, MA) for 10 minutes in sub-boiling temperature. After washing with PBS for 10 minutes, slides were incubated in blocking solution with 5% normal donkey serum (Jackson Immuno Research; West Grove, PA) for 60 minutes at room temperature. Cells were fixed in 4% paraformaldehyde for 15 minutes on 4° C. and washed with PBS, treated with 0.3% Triton™ in PBS for 10 minutes and blocked as previously described for slide samples.
Primary Antibodies. HNF4α antibodies were used (#sc-6556, Santa Cruz Biotechnology; Santa Cruz, CA and #3113, Cell Signaling Technology; Danvers, MA). For fluorescent imaging, samples were incubated with ALEXA FLOUR® 488 green-fluorescent dye or Rhodamine labeled anti-mouse, rabbit or goat and nuclei were counterstained with DAPI (4′,6-diamidino-2-phenylindole). Controls using secondary antibodies alone were used to ensure specificity of immunostaining. Fluorescently labeled sections were analyzed with a conventional inverted microscope (Olympus, PlanFl 40x/0.60) or with a confocal microscope equipped with a krypton/argon laser.
The experiments were performed to establish feedingand treatment regimens, dosing and administration regimens, as well as to provide evidence of beneficial effects of N-trans-caffeoyltyramine on glucose and lipid homeostasis, hepatic steatosis, -cell function and hepatocyte function. Twelve mice (10 weeks old) were fed a high-fat diet for four weeks to induce obesity. After four weeks, and while on the high-fat diet, six mice were administered 5% DMSO or 120 mg/kg N-trans-caffeoyltyramine twice a day intraperitoneally for 14 days. One hour after the last i.p. injection of DMSO or N-trans-caffeoyltyramine, the animals were sacrificed and blood and organ (liver, kidney, gut and pancreas) samples were collected. […]

## O=C(/C=C/c1ccc(O)c(O)c1)NCCc1ccc(O)cc1 [N-trans-caffeoyltyramine]
HNF4α; FIG. 1, dose-response, insulin promoter activity
  potency in activating HNF4α relative to Alverine: roughly an order-of-magnitude more potent than Alverine
HNF4α; HNF4α assay, screening and SAR statements
  HNF4α activation / bioactivity (screening result in words): able to act as HNF4α modulators
diet-induced obese mice; 120 mg/kg twice a day i.p. for 14 days vs DMSO
  lipid accumulation in the liver: decreased lipid accumulation
diet-induced obese mice; 120 mg/kg twice a day i.p. for 14 days vs DMSO, FIG. 8
  lipid droplet sizes in the liver: reduced
diet-induced obese mice; 120 mg/kg twice a day i.p. for 14 days vs DMSO, FIG. 10
  levels of triglycerides: significantly reduced
diet-induced obese mice; 120 mg/kg twice a day i.p. for 14 days vs DMSO, FIG. 11
  HNF4α expression in the pancreas: increased
diet-induced obese mice; 120 mg/kg twice a day i.p. for 14 days vs DMSO, FIG. 12
  HNF4α expression in intestines: increased
diet-induced obese mice; 120 mg/kg twice a day i.p. for 14 days vs DMSO, P=0.0042, FIG. 7
  HNF4α expression in the liver (nuclear expression): significantly increased; also recorded: increases nuclear expression of HNF4α
diet-induced obese mice; 120 mg/kg twice a day i.p. for 14 days, high-fat diet mice
  weight loss, sickness, or abnormal behaviors compared to the control group: None of the treated mice exhibited weight loss, sickness, or abnormal behaviors
diet-induced obese mice; blood, 120 mg/kg twice a day i.p. for 14 days vs DMSO, FIG. 9
  levels of alkaline phosphatase: significantly reduced
